# Measured values published in US20250250261A1, “NOVEL SUBSTITUTED FLUORINATED VINYL-N-PROPYL-PYRROLIDINE COMPOUNDS, PROCESSES FOR THEIR PREPARATION AND THERAPEUTIC USES THEREOF” (SANOFI, priority 2022, published 2025).
# Target: T1, ERα (Homo sapiens, UniProt P03372)
# T1 construct: host or cells: MCF7
# T1 sequence (P03372 1-595): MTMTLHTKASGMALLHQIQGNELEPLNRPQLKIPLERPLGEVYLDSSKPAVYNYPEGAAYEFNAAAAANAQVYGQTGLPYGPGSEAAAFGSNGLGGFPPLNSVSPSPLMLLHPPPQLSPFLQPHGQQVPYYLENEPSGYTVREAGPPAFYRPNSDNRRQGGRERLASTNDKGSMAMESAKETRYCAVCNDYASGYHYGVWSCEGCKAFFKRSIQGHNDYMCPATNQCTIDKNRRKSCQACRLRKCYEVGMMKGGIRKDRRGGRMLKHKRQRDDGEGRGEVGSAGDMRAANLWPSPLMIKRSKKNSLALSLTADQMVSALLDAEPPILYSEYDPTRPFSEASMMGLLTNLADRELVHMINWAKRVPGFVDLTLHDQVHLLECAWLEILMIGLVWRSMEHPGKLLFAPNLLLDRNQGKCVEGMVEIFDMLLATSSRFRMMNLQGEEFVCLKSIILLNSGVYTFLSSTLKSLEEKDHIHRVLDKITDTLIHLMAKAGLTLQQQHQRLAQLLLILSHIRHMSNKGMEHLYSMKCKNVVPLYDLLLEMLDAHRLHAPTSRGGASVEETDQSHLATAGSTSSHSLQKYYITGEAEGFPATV
# Assay: Estrogen receptor degradation activity: breast cancer cell ERα in cell western assay (MCF7 cells)
# Format: cell-based
# Settings: 4 hours, % of ERα levels decrease relative to fulvestrant (0.1 μM) and DMSO
# Procedure: Test: Estrogen Receptor Degradation Activity
# Said test involves measuring the in vitro degradation activity of the compounds of the Table 1a.
# The measurements of the degradation activities were made using a breast cancer cell ERα in cell western assay as described hereunder.
# MCF7 cells (ATCC) were seeded in 384 wells microplate (collagen coated) at a concentration of 10000 cells/30 μL per well in red phenol free MEM alpha medium (invitrogen) containing 5% charcoal dextran striped FBS. The following day, 9 points serial 1:5 dilution of each compound was added to the cells in 2.5 μL at final concentrations ranging from 0.3-0.0000018 μM (in table 2), or 0.1 μM for fulvestrant (using as positive control). At 4 hours post compound addition the cells were fixed by adding 25 μL of formalin (final concentration 5% formalin containing 0.1% triton) for 10 minutes at room temperature and then washed twice with PBS. Then, 50 μL of LI-COR blocking buffer containing 0.1% Triton was added to plate for 30 minutes at room temperature. LI-COR blocking buffer was removed and cells were incubated overnight at cold room with 50 μL anti-ER rabbit monoclonal antibody (Thermo scientific MA1-39540) diluted at 1:1000 in LI-COR blocking buffer containing 0.1% tween-20. Wells which were treated with blocking buffer but no antibody were used as background control. Wells were washed twice with PBS (0.1% tween-20) and incubated at 37° C. for 60 minutes in LI-COR (0.1% tween-20) containing goat anti-rabbit antibody Alexa 488 (1:1000) and Syto-64 a DNA dye (2 μM final concentration). Cells were then washed 3 times in PBS and scanned in ACUMEN explorer (TTP-Labtech). Integrated intensities in the green fluorescence and red fluorescence were measured to determine the levels of ERα and DNA respectively.
# The degradation activity with respect to estrogen receptors in this test is given by the concentration which degrades 50% of the estrogen receptor (or IC50) in nM.
# The % of ERα levels decrease were determined as follows: % inhibition=100*(1−(sample−fulvestrant:DMSO−fulvestrant)).
row,Structure (SMILES),% Degradation At 0.3 μM [%]
1,"Cc1cccc(C2=C(c3ccc(/C=C4/CCN(CCC(F)F)C4)cc3)c3ccc(C(=O)O)cc3CCC2)c1C(F)(F)F [Compound 12, (Z)-9-(4-((1-(3,3-difluoropropyl)pyrrolidin-3-ylidene)methyl)phenyl)-8-(3-methyl-2-(trifluoromethyl)phenyl)-6,7-dihydro-5H-benzo[7]annulene-3-carboxylic acid]",85
2,"O=C(O)c1ccc2c(c1)CCCC(c1cccc(C(F)(F)F)c1)=C2c1ccc(/C=C2/CCN(CCCF)C2)cc1 [Compound 25, (Z)-9-(4-((1-(3-fluoropropyl)pyrrolidin-3-ylidene)methyl)phenyl)-8-(3-(trifluoromethyl)phenyl)-6,7-dihydro-5H-benzo[7]annulene-3-carboxylic acid]",91
3,"Cc1cc(F)ccc1C1=C(c2ccc(/C=C3/CCN(CCC(F)F)C3)cc2)c2ccc(C(=O)O)cc2CCC1 [Compound 15, (Z)-9-(4-((1-(3,3-difluoropropyl)pyrrolidin-3-ylidene)methyl)phenyl)-8-(4-fluoro-2-methylphenyl)-6,7-dihydro-5H-benzo[7]annulene-3-carboxylic acid]",88
4,"Cl.O=C(O)c1ccc2c(c1)CCC(c1ccc(Cl)cc1Cl)=C2c1ccc(/C=C2/CCN(CCCF)C2)cc1 [Compound 24, (Z)-6-(2,4-dichlorophenyl)-5-(4-((1-(3-fluoropropyl)pyrrolidin-3-ylidene)methyl)phenyl)-7,8-dihydronaphthalene-2-carboxylic acid hydrochloride]",91
5,"O=C(O)c1ccc2c(c1)CCCC(c1ccccc1C(F)(F)F)=C2c1ccc(/C=C2/CCN(CCCF)C2)cc1 [Compound 22, (Z)-9-(4-((1-(3-fluoropropyl)pyrrolidin-3-ylidene)methyl)phenyl)-8-(2-(trifluoromethyl)phenyl)-6,7-dihydro-5H-benzo[7]annulene-3-carboxylic acid]",89
6,"Cl.O=C(O)c1ccc2c(c1)CCCC(c1ccc(Cl)cc1Cl)=C2c1ccc(/C=C2/CCN(CCCF)C2)cc1 [Compound 1, (Z)-8-(2,4-dichlorophenyl)-9-(4-((1-(3,3-fluoropropyl)pyrrolidin-3-ylidene)methyl)phenyl)-6,7-dihydro-5H-benzo[7]annulene-3-carboxylic acid, hydrochloride]",96
7,"FCCCN1CC/C(=C/c2ccc(C3=C(c4ccccc4Cl)CCCc4ccccc43)cc2)C1 [Compound 7, (Z)-3-(4-(8-(2-chlorophenyl)-6,7-dihydro-5H-benzo[7]annulen-9-yl)benzylidene)-1-(3-fluoropropyl)pyrrolidine]",82
8,"O=C(O)c1ccc2c(c1)CCCC(c1ccc(F)cc1C(F)(F)F)=C2c1ccc(/C=C2/CCN(CCC(F)F)C2)cc1 [Compound 18, (Z)-9-(4-((1-(3,3-difluoropropyl)pyrrolidin-3-ylidene)methyl)phenyl)-8-(4-fluoro-2-(trifluoromethyl)phenyl)-6,7-dihydro-5H-benzo[7]annulene-3-carboxylic acid]",86
9,"Oc1ccc2c(c1)CCCC(c1ccc(Cl)cc1Cl)=C2c1ccc(/C=C2/CCN(CCC(F)F)C2)cc1 [Compound 17, (Z)-8-(2,4-dichlorophenyl)-9-(4-((1-(3-difluoropropyl)pyrrolidin-3-ylidene)methyl)phenyl)-6,7-dihydro-5H-benzo[7]annulen-3-ol]",61
10,"O=C(O)c1ccc2c(c1)CCCC(c1ccc(F)cc1Cl)=C2c1ccc(/C=C2/CCN(CCCF)C2)cc1 [Compound 2, (Z)-8-(2-chloro-4-fluorophenyl)-9-(4-((1-(3,3-fluoropropyl)pyrrolidin-3-ylidene)methyl)phenyl)-6,7-dihydro-5H-benzo[7]annulene-3-carboxylic acid]",91
11,"Cc1cc(C2=C(c3ccc(/C=C4/CCN(CCCF)C4)cc3)c3ccc(C(=O)O)cc3CCC2)c(C)cc1F [Compound 29, (Z)-8-(4-fluoro-2,5-dimethylphenyl)-9-(4-((1-(3-fluoropropyl)pyrrolidin-3-ylidene)methyl)phenyl)-6,7-dihydro-5H-benzo[7]annulene-3-carboxylic acid]",92
12,"O=C(O)c1ccc2c(c1)CCCC(c1cccc(Cl)c1)=C2c1ccc(/C=C2/CCN(CCCF)C2)cc1 [Compound 27, (Z)-8-(3-chlorophenyl)-9-(4-((1-(3-fluoropropyl)pyrrolidin-3-ylidene)methyl)phenyl)-6,7-dihydro-5H-benzo[7]annulene-3-carboxylic acid]",93
13,"O=C(O)c1ccc2c(c1)CCCC(c1ccc(F)cc1F)=C2c1ccc(/C=C2/CCN(CCCF)C2)cc1 [Compound 9, (Z)-8-(2,4-difluorophenyl)-9-(4-((1-(3,3-fluoropropyl)pyrrolidin-3-ylidene)methyl)phenyl)-6,7-dihydro-5H-benzo[7]annulene-3-carboxylic]",93
14,"Cl.O=C(O)c1ccc2c(c1)CCCC(c1ccc(F)cc1F)=C2c1ccc(/C=C2/CCN(CCC(F)F)C2)cc1 [Compound 5, (Z)-8-(2,4-difluorophenyl)-9-(4-((1-(3,3-difluoropropyl)pyrrolidin-3-ylidene)methyl)phenyl)-6,7-dihydro-5H-benzo[7]annulene-3-carboxylic acid hydrochloride]",88
15,"O=C(O)c1ccc2c(c1)CCCC(c1ccc(C(F)(F)F)cc1)=C2c1ccc(/C=C2/CCN(CCCF)C2)cc1 [Compound 26, (Z)-9-(4-((1-(3-fluoropropyl)pyrrolidin-3-ylidene)methyl)phenyl)-8-(4-(trifluoromethyl)phenyl)-6,7-dihydro-5H-benzo[7]annulene-3-carboxylic acid]",92
16,Cc1cc(F)cc(C)c1C1=C(c2ccc(/C=C3/CCN(CCC(F)F)C3)cc2)c2ccc(C(=O)O)cc2CCC1 [Compound 20],85
17,"Cl.O=C(O)c1ccc2c(c1)OCCC(c1ccc(Cl)cc1Cl)=C2c1ccc(/C=C2/CCN(CCCF)C2)cc1 [Compound 3, (Z)-4-(2,4-dichlorophenyl)-5-(4-((1-(3-fluoropropyl)pyrrolidin-3-ylidene)methyl)phenyl)-2,3-dihydrobenzo[b]oxepine-8-carboxylic acid hydrochloride]",95
18,"O=C(O)c1ccc2c(c1)CCCC(c1ccc(F)cc1C(F)(F)F)=C2c1ccc(/C=C2/CCN(CCCF)C2)cc1 [Compound 8, (Z)-8-(4-fluoro-2-(trifluoromethyl)phenyl)-9-(4-((1-(3-fluoropropyl)pyrrolidin-3-ylidene)methyl)phenyl)-6,7-dihydro-5H-benzo[7]annulene-3-carboxylic acid]",90
19,"Cc1c(Cl)cccc1C1=C(c2ccc(/C=C3/CCN(CCC(F)F)C3)cc2)c2ccc(C(=O)O)cc2CCC1 [Compound 13, (Z)-8-(3-chloro-2-methylphenyl)-9-(4-((1-(3,3-difluoropropyl)pyrrolidin-3-ylidene)methyl)phenyl)-6,7-dihydro-5H-benzo[7]annulene-3-carboxylic acid]",86
20,"Cc1cc(F)cc(C)c1C1=C(c2ccc(/C=C3/CCN(CCCF)C3)cc2)c2ccc(C(=O)O)cc2CCC1 [Compound 21, (Z)-8-(4-fluoro-2,6-dimethylphenyl)-9-(4-((1-(3-fluoropropyl)pyrrolidin-3-ylidene)methyl)phenyl)-6,7-dihydro-5H-benzo[7]annulene-3-carboxylic acid]",94
21,"Cc1c(C2=C(c3ccc(/C=C4/CCN(CCC(F)F)C4)cc3)c3ccc(C(=O)O)cc3CCC2)cccc1C(F)(F)F [Compound 19, (Z)-9-(4-((1-(3,3-difluoropropyl)pyrrolidin-3-ylidene)methyl)phenyl)-8-(2-methyl-3-(trifluoromethyl)phenyl)-6,7-dihydro-5H-benzo[7]annulene-3-carboxylic acid]",87
